Measured values from US11685723B2, “Antibacterial agents: O-alkyl-deuterated pyronins” (Rutgers, the State University of New Jersey, priority 2018, dated 2023).
Converted amounts (≈) assume the structure as drawn. Where two headings read alike, the source gives them in different places.

Tests used:
[1] = Metabolic stability, mouse liver microsomes; type: in vitro ADME; conditions: CD-1 mouse liver microsomes 1 mg/ml, 1 mM NADPH, pH 7.4, 37° C.
Experimental: (§1) Test compounds were incubated with mouse liver microsomes (CD-1; male and female pooled; 1 mg/ml) or human liver microsomes (male; 1 mg/ml) in 50 mM potassium phosphate, pH 7.4, and 1 mM NADPH at 37° C. Aliquots were removed at 0, 15, 30, 60, 90 and 120 min, and amounts of test compounds remaining were determined by LC-MS/MS. Half lives (t0.5) were calculated as t0.5=−0.693/k, where k is the slope of the linear regression of the natural logarithms of percentages of test compounds remaining vs. time.

[2] = Metabolic stability, human liver microsomes; type: in vitro ADME; conditions: human liver microsomes (male) 1 mg/ml, 1 mM NADPH, pH 7.4, 37° C.
Experimental: as §1

[3] = target: E. coli RNA polymerase σ70 holoenzyme (Escherichia coli, UniProt P0A8T7+P0A8V2); experiment: Fluorescence-detected inhibition of bacterial RNA polymerase; type: biochemical
E. coli RNA polymerase σ70 holoenzyme, sequence (P0A8V2 whole entry, the tested form may be a part): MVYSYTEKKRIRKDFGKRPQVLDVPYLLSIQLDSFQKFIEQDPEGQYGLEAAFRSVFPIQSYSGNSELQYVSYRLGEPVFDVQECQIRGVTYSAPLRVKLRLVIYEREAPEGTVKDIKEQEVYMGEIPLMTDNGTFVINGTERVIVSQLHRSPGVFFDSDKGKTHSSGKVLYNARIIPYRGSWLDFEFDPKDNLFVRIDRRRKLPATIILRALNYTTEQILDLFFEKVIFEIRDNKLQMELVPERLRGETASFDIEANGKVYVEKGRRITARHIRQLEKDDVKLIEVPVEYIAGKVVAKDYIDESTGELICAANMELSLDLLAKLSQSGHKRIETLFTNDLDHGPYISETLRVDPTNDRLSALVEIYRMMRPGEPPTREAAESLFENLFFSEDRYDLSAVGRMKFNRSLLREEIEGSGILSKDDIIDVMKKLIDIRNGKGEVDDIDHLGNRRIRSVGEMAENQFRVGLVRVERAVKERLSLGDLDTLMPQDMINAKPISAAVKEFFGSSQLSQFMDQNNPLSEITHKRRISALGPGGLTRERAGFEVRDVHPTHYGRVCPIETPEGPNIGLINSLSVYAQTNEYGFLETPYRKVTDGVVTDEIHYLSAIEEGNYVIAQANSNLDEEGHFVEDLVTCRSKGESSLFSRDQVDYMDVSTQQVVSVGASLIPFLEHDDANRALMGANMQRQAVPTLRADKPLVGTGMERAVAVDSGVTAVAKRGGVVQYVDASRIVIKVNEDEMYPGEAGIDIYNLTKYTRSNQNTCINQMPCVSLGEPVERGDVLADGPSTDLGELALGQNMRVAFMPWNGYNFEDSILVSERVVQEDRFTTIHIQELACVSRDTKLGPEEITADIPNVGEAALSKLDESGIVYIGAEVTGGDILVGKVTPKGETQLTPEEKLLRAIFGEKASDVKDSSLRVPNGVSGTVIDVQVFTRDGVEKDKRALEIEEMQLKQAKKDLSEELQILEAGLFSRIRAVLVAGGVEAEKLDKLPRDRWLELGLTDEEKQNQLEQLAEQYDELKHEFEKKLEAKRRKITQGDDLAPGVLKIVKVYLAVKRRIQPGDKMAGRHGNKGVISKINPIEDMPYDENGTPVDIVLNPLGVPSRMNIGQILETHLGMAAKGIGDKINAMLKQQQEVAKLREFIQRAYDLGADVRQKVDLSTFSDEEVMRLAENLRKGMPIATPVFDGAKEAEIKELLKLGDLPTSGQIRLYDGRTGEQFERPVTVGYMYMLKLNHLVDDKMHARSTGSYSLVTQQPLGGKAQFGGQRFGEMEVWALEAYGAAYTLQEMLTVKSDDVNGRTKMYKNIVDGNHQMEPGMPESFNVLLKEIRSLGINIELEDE
E. coli RNA polymerase σ70 holoenzyme, sequence (P0A8T7 whole entry, the tested form may be a part): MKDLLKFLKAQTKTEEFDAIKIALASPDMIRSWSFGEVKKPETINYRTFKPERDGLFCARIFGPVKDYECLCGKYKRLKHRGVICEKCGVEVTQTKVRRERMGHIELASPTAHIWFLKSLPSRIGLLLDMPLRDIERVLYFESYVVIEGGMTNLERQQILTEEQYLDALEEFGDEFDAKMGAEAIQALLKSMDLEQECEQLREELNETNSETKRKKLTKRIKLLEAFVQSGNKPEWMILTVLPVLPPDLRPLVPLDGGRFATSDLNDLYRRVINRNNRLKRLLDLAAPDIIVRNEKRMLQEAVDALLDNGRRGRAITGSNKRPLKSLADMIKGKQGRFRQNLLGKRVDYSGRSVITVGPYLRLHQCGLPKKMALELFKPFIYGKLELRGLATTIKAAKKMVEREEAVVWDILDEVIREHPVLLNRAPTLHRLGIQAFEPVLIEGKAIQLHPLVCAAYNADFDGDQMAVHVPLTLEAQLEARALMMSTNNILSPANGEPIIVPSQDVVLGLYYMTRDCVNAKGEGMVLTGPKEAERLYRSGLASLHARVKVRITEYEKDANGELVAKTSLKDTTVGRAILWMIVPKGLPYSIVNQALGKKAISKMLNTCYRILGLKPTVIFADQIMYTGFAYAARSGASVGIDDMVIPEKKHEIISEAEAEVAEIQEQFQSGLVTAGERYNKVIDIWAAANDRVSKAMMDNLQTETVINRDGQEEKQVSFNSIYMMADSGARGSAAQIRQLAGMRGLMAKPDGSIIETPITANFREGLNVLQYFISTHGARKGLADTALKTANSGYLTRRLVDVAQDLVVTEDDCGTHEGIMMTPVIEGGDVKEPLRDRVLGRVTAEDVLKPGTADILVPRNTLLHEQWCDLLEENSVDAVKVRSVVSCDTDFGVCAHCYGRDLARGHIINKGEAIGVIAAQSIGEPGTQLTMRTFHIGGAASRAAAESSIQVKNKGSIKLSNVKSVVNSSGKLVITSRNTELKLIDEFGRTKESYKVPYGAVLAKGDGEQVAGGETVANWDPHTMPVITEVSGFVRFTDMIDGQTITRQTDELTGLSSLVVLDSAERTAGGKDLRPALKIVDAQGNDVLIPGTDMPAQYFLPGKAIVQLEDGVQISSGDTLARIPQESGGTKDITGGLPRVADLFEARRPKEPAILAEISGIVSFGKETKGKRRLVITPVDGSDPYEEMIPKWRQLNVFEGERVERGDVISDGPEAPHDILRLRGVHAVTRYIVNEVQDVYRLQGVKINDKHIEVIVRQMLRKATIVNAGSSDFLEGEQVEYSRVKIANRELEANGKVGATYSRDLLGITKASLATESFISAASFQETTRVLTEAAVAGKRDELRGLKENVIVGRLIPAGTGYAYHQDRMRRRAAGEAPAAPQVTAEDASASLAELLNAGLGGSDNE
E. coli RNA polymerase σ70 holoenzyme, sequence (P0A7Z4 whole entry partner, the tested form may be a part): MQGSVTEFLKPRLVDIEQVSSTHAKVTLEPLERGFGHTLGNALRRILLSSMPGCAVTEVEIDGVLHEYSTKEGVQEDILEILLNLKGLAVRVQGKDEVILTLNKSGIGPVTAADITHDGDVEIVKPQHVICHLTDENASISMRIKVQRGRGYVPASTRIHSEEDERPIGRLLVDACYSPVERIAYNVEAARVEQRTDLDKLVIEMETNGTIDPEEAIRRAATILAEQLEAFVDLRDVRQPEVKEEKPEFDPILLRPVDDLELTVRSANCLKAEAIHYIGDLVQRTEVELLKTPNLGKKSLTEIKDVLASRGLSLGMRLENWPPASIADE
E. coli RNA polymerase σ70 holoenzyme, sequence (P0A800 2-91 partner limits assumed): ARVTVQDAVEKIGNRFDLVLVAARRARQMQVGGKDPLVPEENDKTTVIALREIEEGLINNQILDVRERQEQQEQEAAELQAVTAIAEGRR
E. coli RNA polymerase σ70 holoenzyme, sequence (P00579 whole entry partner, the tested form may be a part): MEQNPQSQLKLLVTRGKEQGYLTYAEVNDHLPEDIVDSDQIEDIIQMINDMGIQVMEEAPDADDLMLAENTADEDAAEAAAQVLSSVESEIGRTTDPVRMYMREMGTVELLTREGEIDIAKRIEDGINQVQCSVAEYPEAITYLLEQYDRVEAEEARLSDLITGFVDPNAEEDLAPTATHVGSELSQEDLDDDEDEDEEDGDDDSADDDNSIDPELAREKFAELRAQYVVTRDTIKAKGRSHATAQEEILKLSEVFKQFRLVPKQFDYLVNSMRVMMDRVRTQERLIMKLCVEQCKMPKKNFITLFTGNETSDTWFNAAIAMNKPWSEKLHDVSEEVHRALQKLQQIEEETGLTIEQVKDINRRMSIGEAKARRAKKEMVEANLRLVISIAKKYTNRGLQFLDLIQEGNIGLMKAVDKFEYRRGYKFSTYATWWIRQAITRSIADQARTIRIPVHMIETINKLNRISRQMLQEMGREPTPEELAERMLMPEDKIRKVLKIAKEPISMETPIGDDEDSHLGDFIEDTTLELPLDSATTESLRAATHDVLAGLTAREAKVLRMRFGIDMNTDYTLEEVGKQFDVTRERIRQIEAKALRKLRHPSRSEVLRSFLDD
Experimental: Fluorescence-detected RNA polymerase assays with E. coli RNA polymerase were performed by a modification of the procedure of Kuhlman et al., 2004 [Kuhlman, P., Duff, H. & Galant, A. (2004) A fluorescence-based assay for multisubunit DNA-dependent RNA polymerases. Anal. Biochem. 324, 183-190]. Reaction mixtures contained (20 μl): 0-100 nM test compound, 75 nM E. coli RNA polymerase σ^70holoenzyme, 20 nM 384 bp DNA fragment containing the bacteriophage T4 N25 promoter, 100 μM ATP, 100 μM GTP, 100 μM UTP, 100 μM CTP, 50 mM Tris-HCl, pH 8.0, 100 mM KCl, 10 mM MgCl2, 1 mM DTT, 10 μg/ml bovine serum albumin, and 5.5% glycerol. Reaction components other than DNA and NTPs were pre-incubated for 10 min at 37° C. Reactions were carried out by addition of DNA and incubation for 5 min at 37° C., followed by addition of NTPs and incubation for 60 min at 37° C. DNA was removed by addition of 1 μl 5 mM CaCl2 and 2 U DNaseI (Ambion, Inc.), followed by incubation for 90 min at 37° C. RNA was quantified by addition of 100 μl RiboGreen RNA Quantitation Reagent (Invitrogen, Inc.; 1:500 dilution in Tris-HCl, pH 8.0, 1 mM EDTA), followed by incubation for 10 min at 25° C., followed by measurement of fluorescence intensity [excitation wavelength=485 nm and emission wavelength=535 nm; QuantaMaster QM1 spectrofluorometer (PTI, Inc.)]. IC50 is defined as the concentration of inhibitor resulting in 50% inhibition of RNA polymerase activity.

[4] = In vivo pharmacokinetics in mice (intravenous administration); conditions: CD-1 mice, 2.5 mg/kg
Experimental: Test compounds (2.5 mg/kg; 0.1 ml of 0.625 mg/ml solution in 5% dimethylacetamide and 4% Cremophor EL in 100 mM sodium phosphate, pH 7.4) were administered to mice (CD-1; […]; n=3) by intravenous injection into a tail vein at t=0 h. Blood samples were collected by tail-vein bleed (CB 300 K2E tubes; Sarstedt) at t=0.02, 0.05, 1, 3, 5, and 8 h, and plasma concentrations of test compounds were determined by LC-MS/MS.

[5] = test system: Mycobacterium tuberculosis H37Rv; experiment: Inhibition of growth of Mycobacterium tuberculosis (microplate Alamar Blue assay); type: cell-based; conditions: read-out: in vitro antibacterial activity M. tuberculosis H37Rv MIC
[6] = test system: Staphylococcus aureus ATCC 12600; experiment: Inhibition of growth of Staphylococcus aureus (spiral gradient endpoint assay); type: cell-based; conditions: read-out: in vitro antibacterial activity S. aureus ATCC 12600 MIC
Description: Minimum inhibitory concentrations (MICs) for Staphylococcus aureus ATCC 12600 were quantified using spiral gradient endpoint assays, essentially as described [Wallace, A. and Corkill, J. (1989) Application of the spiral plating method to study antimicrobial action. J. Microbiol. Meths. 10, 303-310; Paton, J., Holt, A., and Bywater, M. (1990) Measurement of MICs of antibacterial agents by spiral gradient endpoint compared with conventional dilution methods. Int. J. Exp. Clin. Chemother. 3, 31-38; Schalkowsky S. (1994) Measures of susceptibility from a spiral gradient of drug concentrations. Adv. Exp. Med. Biol. 349, 107-120]. Assays employed exponential-gradient plates containing 150 mm×4 mm Mueller-Hinton II cation-adjusted agar and 0.4-100 μg/ml of test compound. Plates were prepared using an Autoplate 4000 spiral plater (Spiral Biotech, Inc.). Saturated overnight cultures were swabbed radially onto plates, and plates were incubated for 16 h at 37° C. For each culture, the streak length was measured using a clear plastic template (Spiral Biotech, Inc.), the test-compound concentration at the streak endpoint was calculated using the program SGE (Spiral Biotech, Inc.), and the MIC was defined as the calculated test-compound concentration at the streak endpoint.

[7] = 75 nM E. coli RNAP holoenzyme, RiboGreen fluorescence, read-out: in vitro RNAP-inhibitory activity E. coli RNAP IC50
[8] = ATCC12600, spiral gradient endpoint assay, 16 h at 37° C.

Compound | mouse liver microsome t0.5 [1] | human liver microsome t0.5 [2] | IC50 [3, 7] | plasma t0.5 [4] | MIC [5] | MIC [6, 8] | IC50 [3] | MIC ([6]; ATCC12600, 16 h)
CCCC/C(C)=C/C=C(\C)C(=O)c1c(O)cc(C(C)CC/C=C/NC(=O)OC)oc1=O (racemic) [Example 10, (±)Myxopyronin B, reference compound] | 21 min | 1.7 min | 13 nM | – | – | – | – | –
COC(=O)N/C=C/CCC(C)c1cc(O)c(C(=O)/C(C)=C/c2sc(Oc3ccc(F)cc3)nc2C)c(=O)o1 (centres unmarked) [Example 1] | 21 min | 8.3 min | 5.6 nM | 2.7 h | 3.12 µg/mL (≈ 5.76 µM) | 0.35 µg/mL (≈ 0.645 µM) | – | –
COC(=O)N/C=C/CCC(C)c1cc(O)c(C(=O)/C(C)=C/c2cnc(Oc3ccc(F)cc3)s2)c(=O)o1 (centres unmarked) [Example 2] | 60 min | 14 min | 9.6 nM | 2.8 h | 3.12 µg/mL (≈ 5.91 µM) | 0.5 µg/mL (≈ 0.946 µM) | – | –
COC(=O)N/C=C/CCCc1cc(O)c(C(=O)/C(C)=C/c2sc(Oc3ccc(F)cc3)nc2C)c(=O)o1 [Example 3] | 110 min | 5.6 min | 4.5 nM | 2.5 h | 1.56 µg/mL (≈ 2.95 µM) | 0.17 µg/mL (≈ 0.322 µM) | – | –
[2H]C([2H])([2H])OC(=O)N/C=C/CCC(C)c1cc(O)c(C(=O)/C(C)=C/c2sc(Oc3ccc(F)cc3)nc2C)c(=O)o1 (centres unmarked) [Example 4] | 59 min | 16 min | 6.8 nM | 2.7 h | – | 0.24 µg/mL (≈ 0.44 µM) | – | –
[2H]C([2H])([2H])OC(=O)N/C=C/CCC(C)c1cc(O)c(C(=O)/C(C)=C/c2cnc(Oc3ccc(F)cc3)s2)c(=O)o1 (centres unmarked) [Example 5] | >120 min | 21 min | 5.3 nM | 3.0 h | 1.56 µg/mL (≈ 2.93 µM) | 0.3 µg/mL (≈ 0.564 µM) | – | –
COC(=O)N/C=C/CCCc1cc(O)c(C(=O)/C(C)=C/c2cnc(Oc3ccc(F)cc3)s2)c(=O)o1 [Example 6] | >120 min | 8.6 min | 8.4 nM | 2.4 h | 0.78 µg/mL (≈ 1.52 µM) | 0.73 µg/mL (≈ 1.42 µM) | – | –
[2H]C([2H])([2H])OC(=O)N/C=C/CCCc1cc(O)c(C(=O)/C(C)=C/c2sc(Oc3ccc(F)cc3)nc2C)c(=O)o1 [Example 7] | >120 min | 8.3 min | 2 nM | 2.6 h | 0.78 µg/mL (≈ 1.47 µM) | 0.19 µg/mL (≈ 0.357 µM) | – | –
[2H]C([2H])([2H])OC(=O)N/C=C/CCCc1cc(O)c(C(=O)/C(C)=C/c2cnc(Oc3ccc(F)cc3)s2)c(=O)o1 [Example 8] | >120 min | 21 min | 3 nM | 2.7 h | 0.78 µg/mL (≈ 1.51 µM) | 0.25 µg/mL (≈ 0.483 µM) | – | –
[2H]C([2H])([2H])OC(=O)N/C=C/CCCc1cc([O-])c(C(=O)/C(C)=C/c2cnc(Oc3ccc(F)cc3)s2)c(=O)o1.[Na+] [Example 9] | >120 min | 29 min | – | 3.9 h | 0.39 µg/mL | – | 3 nM | 0.41 µg/mL
COC(=O)N/C=C/CCC(C)c1cc(O)c(C(=O)/C(C)=C/C=C(\C)CCC(F)(F)F)c(=O)o1 (centres unmarked) [Example 11, reference compound] | 100 min | 25 min | 12 nM | – | – | – | – | –
[2H]C([2H])([2H])OC(=O)N/C=C/CCC(C)c1cc(O)c(C(=O)/C(C)=C/C=C(\C)CCCC)c(=O)o1 (centres unmarked) [Example 12] | 66 min | 4.2 min | – | – | – | – | – | –
[2H]C([2H])([2H])OC(=O)N/C=C/CCC(C)c1cc(O)c(C(=O)/C(C)=C/C=C(\C)CCC(F)(F)F)c(=O)o1 (centres unmarked) [Example 13] | >120 min | 33 min | 23 nM | – | – | – | – | –
[2H]C([2H])([2H])OC(=O)N/C=C/CCCc1cc(O)c(C(=O)/C(C)=C/c2cnc(Oc3ccc(F)c(Cl)c3)s2)c(=O)o1 [Example 14] | 65 min | 21 min | 2.9 nM | 1.8 h | 0.78 µg/mL (≈ 1.41 µM) | 0.19 µg/mL (≈ 0.344 µM) | – | –
[2H]C([2H])([2H])OC(=O)N/C=C/CCCc1cc([O-])c(C(=O)/C(C)=C/c2cnc(Oc3ccc(F)c(Cl)c3)s2)c(=O)o1.[Na+] [Example 15] | – | – | – | – | 0.78 µg/mL | – | 2.9 nM | 0.17 µg/mL
[2H]C([2H])([2H])OC(=O)N/C=C/CCCc1cc(O)c(C(=O)/C(C)=C/c2cnc(Oc3ccc(-c4ccccc4)cc3)s2)c(=O)o1 [Example 16] | 46 min | 44 min | 18 nM | – | > 50 µg/mL | > 8 µg/mL | – | –
[2H]C([2H])([2H])OC(=O)N/C=C/CCCc1cc([O-])c(C(=O)/C(C)=C/c2cnc(Oc3ccc(-c4ccccc4)cc3)s2)c(=O)o1.[Na+] [Example 17] | – | – | – | – | > 50 µg/mL | – | 49 nM | –
[2H]C([2H])([2H])OC(=O)N/C=C/CCCc1cc(O)c(C(=O)/C(C)=C/c2cnc(Oc3ccc(F)c(Br)c3)s2)c(=O)o1 [Example 18] | – | – | 1.6 nM | – | 0.78 µg/mL (≈ 1.31 µM) | 0.35 µg/mL (≈ 0.587 µM) | – | –
[2H]C([2H])([2H])OC(=O)N/C=C/CCCc1cc(O)c(C(=O)/C(C)=C/c2cnc(Oc3ccc(F)c(-c4ccccc4)c3)s2)c(=O)o1 [Example 19] | – | – | 1.2 nM | – | 25 µg/mL (≈ 42.1 µM) | 0.93 µg/mL (≈ 1.57 µM) | – | –
[2H]C([2H])([2H])OC(=O)N/C=C/CCCc1cc(O)c(C(=O)/C(C)=C/c2cnc(Oc3ccc(F)c(F)c3)s2)c(=O)o1 [Example 20] | – | – | 3 nM | – | 0.78 µg/mL (≈ 1.46 µM) | 0.26 µg/mL (≈ 0.485 µM) | – | –
